Reference: US12415786B2, “Substituted 2-heteroarylaminobenzenes and the salts thereof and their use as herbicidal agents” (Bayer Aktiengesellschaft, priority 2019, dated 2025)

Columns and labels:
Type in all cases: in vivo
Agrostis tenuis = assay: Herbicidal early post-emergence action (96-well microtiter plates), AGSTE; settings: 1900 g/ha, scored 9 to 12 days after treatment, 100% = plants have died, 0% = like untreated control plants
From the text: (§1) In the examples and tables below, the following abbreviations are used: • Undesired Plants/Weeds: • ABUTH: Abutilon theophrasti • AGSTE: Agrostis tenuis • AMARE Amaranthus retroflexus • ECHCG: Echinochloa crus-galli • LOLRI: Lolium rigidum • MATIN: Matricaria inodora • POAAN: Poa annua • SETVI: Setaria viridis • STEME: Stellaria media A. Herbicidal Early Post-Emergence Action Seeds of monocotyledonous and dicotyledonous weed plants were placed in 96-well microtiter plates in quartz sand and grown in a climatized chamber under controlled growth conditions. 5 to 7 days after sowing, the test plants were treated at the cotyledon stage. The compounds according to the invention, formulated in the form of emulsion concentrates (EC), were applied with a water application rate of the equivalent of 2200 liters per hectare. After the test plants had been left to stand in the climatized chamber for 9 to 12 days under optimum growth conditions, the effect of the preparations was scored visually in comparison to untreated controls. Here, for example, 100% activity=the plants have died, 0% activity=like untreated control plants. Tables A1 to A2 below show the effects of selected compounds of the general formula (I) according to Table 1 above on various harmful plants and an application rate corresponding to 1900 g/ha, which were obtained by the experimental procedure mentioned above.

Poa annua [1] = assay: Herbicidal early post-emergence action (96-well microtiter plates), POAAN; settings: 1900 g/ha, scored 9 to 12 days after treatment, 100% = plants have died, 0% = like untreated control plants
From the text: as §1

Amaranthus retroflexus [2] = assay: Herbicidal post-emergence action (greenhouse pots), AMARE; settings: 1280 g/ha, visual rating about 3 weeks after treatment vs untreated controls
From the text: (§2) In the examples and tables below, the following abbreviations are used: • Undesired Plants/Weeds: • ABUTH: Abutilon theophrasti • AGSTE: Agrostis tenuis • AMARE Amaranthus retroflexus • ECHCG: Echinochloa crus-galli • LOLRI: Lolium rigidum • MATIN: Matricaria inodora • POAAN: Poa annua • SETVI: Setaria viridis • STEME: Stellaria media A. Herbicidal Early Post-Emergence Action Seeds of mono- and dicotyledonous weed plants were placed in plastic pots in sandy loam soil (doubly sown with in each case one species of mono- or dicotyledonous weed plants per pot), covered with soil and cultivated in a greenhouse under controlled growth conditions. 2 to 3 weeks after sowing, the test plants were treated at the one-leaf stage. The compounds of the invention, formulated in the form of wettable powders (WP) or as emulsion concentrates (EC), were applied onto the green parts of the plants as aqueous suspension or emulsion with addition of 0.5% additive at a water application rate of 600 liters per hectare (converted). After the test plants had been kept in the greenhouse under optimum growth conditions for about 3 weeks, the activity of the preparations was rated visually in comparison to untreated controls. For example, 100% activity=the plants have died, 0% activity=like untreated control plants. Tables B1-B8 below show the effects of selected compounds of the general formula (I) according to Table 1 above on various harmful plants and an application rate corresponding to 1280 g/ha, which were obtained by the experimental procedure mentioned above.

Stellaria media [3] = assay: Herbicidal post-emergence action (greenhouse pots), STEME; settings: 1280 g/ha, visual rating about 3 weeks after treatment vs untreated controls
From the text: as §2

Poa annua [4] = assay: Herbicidal pre-emergence action (greenhouse pots), POAAN; settings: 1280 g/ha, visual scoring after about 3 weeks vs untreated controls
From the text: (§3) In the examples and tables below, the following abbreviations are used: • Undesired Plants/Weeds: • ABUTH: Abutilon theophrasti • AGSTE: Agrostis tenuis • AMARE Amaranthus retroflexus • ECHCG: Echinochloa crus-galli • LOLRI: Lolium rigidum • MATIN: Matricaria inodora • POAAN: Poa annua • SETVI: Setaria viridis • STEME: Stellaria media A. Herbicidal Early Post-Emergence Action Seeds of mono- and dicotyledonous weed plants were placed in plastic pots in sandy loam soil (doubly sown with one species each of mono- or dicotyledonous weed plants per pot) and covered with soil. The compounds of the invention, formulated in the form of wettable powders (WP) or as emulsion concentrates (EC), were then applied onto the surface of the covering soil as aqueous suspension or emulsion with addition of 0.5% additive at a water application rate of 600 liters per hectare (converted). After the treatment, the pots were placed in a greenhouse and kept under good growth conditions for the test plants. After about 3 weeks, the effect of the preparations was scored visually in comparison with untreated controls as percentages. For example, 100% activity=the plants have died, 0% activity=like untreated control plants. Tables C1-C8 below show the effects of selected compounds of the general formula (I) according to Table 1 above on various harmful plants and an application rate corresponding to 1280 g/ha, which were obtained by the experimental procedure mentioned above.

Setaria viridis = assay: Herbicidal pre-emergence action (greenhouse pots), SETVI; settings: 1280 g/ha, visual scoring after about 3 weeks vs untreated controls
From the text: as §3

Amaranthus retroflexus [5] = assay: Herbicidal pre-emergence action (greenhouse pots), AMARE; settings: 1280 g/ha, visual scoring after about 3 weeks vs untreated controls
From the text: as §3

Matricaria inodora = assay: Herbicidal pre-emergence action (greenhouse pots), MATIN; settings: 1280 g/ha, visual scoring after about 3 weeks vs untreated controls
From the text: as §3

Stellaria media [6] = assay: Herbicidal pre-emergence action (greenhouse pots), STEME; settings: 1280 g/ha, visual scoring after about 3 weeks vs untreated controls
From the text: as §3

Abutilon theophrasti = assay: Herbicidal post-emergence action (greenhouse pots), ABUTH; settings: 1280 g/ha, visual rating about 3 weeks after treatment vs untreated controls
From the text: as §2

Row | SMILES | AGSTE (herbicidal activity, scored visually in comparison to untreated controls) (Agrostis tenuis) [%] | POAAN (herbicidal activity, scored visually in comparison to untreated controls) (Poa annua [1]) [%] | herbicidal activity AMARE (Amaranthus retroflexus [2]) [%] | herbicidal activity STEME (Stellaria media [3]) [%] | herbicidal activity POAAN (Poa annua [4]) [%] | herbicidal activity SETVI (Setaria viridis) [%] | herbicidal activity AMARE (Amaranthus retroflexus [5]) [%] | herbicidal activity MATIN (Matricaria inodora) [%] | herbicidal activity STEME (Stellaria media [6]) [%] | herbicidal activity ABUTH (Abutilon theophrasti) [%]
1 | N#Cc1cnc(Nc2cccc(C#N)c2Oc2ccc(F)c(F)c2)nc1 [Example 1-305] | 100 | 100 | 100 | 100 | 100 | 90 | 100 | 100 | 100 | 
2 | Clc1cnc(Nc2ccccc2Oc2cccnc2)nc1 [Example 3-49] | 80 |  | 100 |  |  |  |  |  |  | 90
3 | N#Cc1ccc(Oc2ccccc2Nc2ncc(Cl)cn2)cc1 [Example 1-339] | 100 | 100 | 100 | 100 |  |  |  |  |  | 
4 | N#Cc1cccc(Nc2ncc(F)cn2)c1Oc1ccccc1F [Example 1-265] | 80 |  | 100 |  | 100 | 90 | 100 |  | 100 | 
5 | N#Cc1cccc(Nc2ncccn2)c1Oc1ccc(F)cc1F [Example 1-251] | 80 | 80 | 100 |  |  | 90 | 100 | 100 | 100 | 
6 | N#Cc1cccc(Nc2ncc(F)cn2)c1Oc1cc(F)ccc1F [Example 1-271] | 80 | 80 | 100 |  | 90 | 90 | 100 |  |  | 
7 | N#Cc1cccc(Nc2ccc(F)cn2)c1Oc1ccc(F)cc1 [Example 1-106] | 100 | 100 | 100 | 90 | 100 |  | 100 |  |  | 
8 | COc1cccc(Oc2c(C#N)cccc2Nc2ncc(Cl)cn2)c1 [Example 1-300] | 80 |  | 100 |  |  |  | 90 | 90 | 100 | 
9 | N#Cc1cnc(Nc2cccc(C#N)c2Oc2ccc(F)cc2)nc1 [Example 1-304] | 100 | 100 | 100 |  | 100 | 100 | 100 | 100 | 100 | 
10 | N#Cc1cccc(Nc2ccccn2)c1Oc1ccc(F)cc1 [Example 1-88] | 100 | 80 |  | 100 |  | 90 | 100 |  |  | 
11 | N#Cc1cccc(Nc2ncccn2)c1Oc1ccc(Cl)cc1 [Example 1-250] | 80 | 80 | 100 | 90 | 100 | 90 | 100 |  | 100 | 
12 | N#Cc1cccc(Nc2ncccn2)c1Oc1cc(F)cc(F)c1 [Example 1-254] |  |  | 100 |  | 90 | 100 | 100 |  |  | 
13 | N#Cc1cccc(Nc2ncc(F)cn2)c1Oc1ccc(F)cc1Cl [Example 1-274] | 80 | 100 | 100 | 90 | 90 |  | 90 |  | 90 | 
14 | N#Cc1cccc(Nc2ncccn2)c1Oc1ccc(Cl)cc1F [Example 1-256] | 80 | 80 | 100 |  | 100 | 90 | 100 | 90 | 100 | 
15 | N#Cc1cccc(Nc2ncc(Cl)cn2)c1Oc1cccc(Cl)c1 [Example 1-287] | 80 |  | 100 |  | 100 | 100 | 100 |  |  | 
16 | N#Cc1cccc(Nc2ncccn2)c1Oc1ccc(F)cc1Cl [Example 1-255] | 80 | 80 | 100 | 100 |  |  | 100 |  | 100 | 
